According to patent US10435333B2, “High temperature amine-stabilized DCD and/or alkyl thiophosphoric triamide solvent systems and use in agricultural applications” (RHODIA OPERATIONS, priority 2015, dated 2019):

Tests used:
[1] = cited from earlier work
[2] = degradation of NBPT at high temperature (colour change, sludge/precipitate); assay type: physicochemical
Method: Another problem is that certain nitrification inhibitors and/or urease inhibitors degrade at high temperatures. […] Often times temperatures in agricultural fields (e.g., corn fields, wheat fields, etc.) reach in excess of 35° C. and sometimes can reach up to 45° C. or higher. For example, at 45° C. […] Thus, it is also desirable to have solvent systems containing nitrification inhibitors and/or urease inhibitors that are stabilized at high temperatures, such as those unitized in hot climates or weather. This invention addresses the addition of stabilizers to prolong the chemical and physical stability of formulated liquid agricultural compositions containing (i) one or more nitrification inhibitors, (ii) one or more urease inhibitors or (iii) a combination of both (i) and (ii). In one embodiment, the urease inhibitor is NBPT.

[3] = visual physical stability of NBPT/DMSO formulation with 2 wt % amine stabilizer at high temperature (FIG. 1); assay type: physicochemical; conditions: 2 wt % amine stabilizer in NBPT/DMSO formulation, greater than 45° C.
Method: FIG. 1 is a photograph of Several amines or amides were tested to check if they can stabilize NBPT degradation at high temperatures (at greater than 45° C.) in NBPT/DMSO formulation. Each sample was prepared with 2% of amine stabilizer added.
Referring to FIG. 1, Several amines or amides were tested to check if they can stabilize NBPT degradation at high temperatures (at greater than 45° C.) in NBPT/DMSO formulation. Each sample was prepared with 2 wt % of amine stabilizer added.

N#CNC(=N)N [Dicyandiamide, 2-cyanoguanidine]
solubility in water [1]: about 41 g/l

CCCCNP(N)(N)=S [NBPT, N-(n-butyl)-thiophosphoric triamide]
appearance after exposure to high heat ([2]; 45° C., NBPT formulated in different solvents, days to weeks): changes color in days from colorless to a darker green/brown, followed by sludge/precipitate formation after weeks
degradation at higher temperature ([2]; typically above 45° C.): degrades rapidly

NCCO [monoethanolamine]
physical stability by visual observation (appearance) [3]: better physical stability (less dark appearance)
